The values that follow come from PMC8550792, “Evolution of kinase polypharmacology across HSP90 drug discovery” (Cell Chemical Biology, 2021).

What all share (experiment): biochemical
Common to all, as to assay type: biochemical

Test [1] concerns the target T1, 382 unique human kinases (Homo sapiens, UniProt Q99759).
T1 construct: purchased Reaction Biology (HotSpot contract assay)
T1 sequence (Q99759 1-626): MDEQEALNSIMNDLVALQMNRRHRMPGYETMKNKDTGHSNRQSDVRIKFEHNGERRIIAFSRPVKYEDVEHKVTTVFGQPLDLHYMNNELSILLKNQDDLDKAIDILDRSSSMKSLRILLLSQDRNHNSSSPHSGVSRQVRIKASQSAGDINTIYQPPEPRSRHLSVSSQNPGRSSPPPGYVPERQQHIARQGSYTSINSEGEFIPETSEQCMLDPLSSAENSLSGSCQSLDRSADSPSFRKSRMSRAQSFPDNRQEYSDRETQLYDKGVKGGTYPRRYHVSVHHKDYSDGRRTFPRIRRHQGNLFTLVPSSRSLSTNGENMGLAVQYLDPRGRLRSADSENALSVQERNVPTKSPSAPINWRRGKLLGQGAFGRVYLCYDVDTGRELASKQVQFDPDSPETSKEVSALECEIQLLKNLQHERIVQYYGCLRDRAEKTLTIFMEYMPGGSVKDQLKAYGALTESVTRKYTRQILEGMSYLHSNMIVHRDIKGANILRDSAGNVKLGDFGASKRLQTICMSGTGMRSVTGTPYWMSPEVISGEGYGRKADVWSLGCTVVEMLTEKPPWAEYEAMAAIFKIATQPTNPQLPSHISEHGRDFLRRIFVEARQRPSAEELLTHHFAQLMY
The conditions noted are these: MEKK3, compound at 10 uM, duplicate values; for remaining activity at 10 µM: read-out: % Enzyme Activity (relative to DMSO controls).

Test [2] addresses T2, 382 unique human kinases (Homo sapiens, UniProt P51812).
T2 construct: purchased Reaction Biology (HotSpot contract assay)
Particulars: RSK2, 10 uM; for remaining activity at 10 µM: read-out: % Enzyme Activity (relative to DMSO controls).

For test [3], the target named is T3, 382 unique human kinases (Homo sapiens, UniProt Q99986).
T3 construct: purchased Reaction Biology (HotSpot contract assay)
T3 sequence (Q99986 1-396): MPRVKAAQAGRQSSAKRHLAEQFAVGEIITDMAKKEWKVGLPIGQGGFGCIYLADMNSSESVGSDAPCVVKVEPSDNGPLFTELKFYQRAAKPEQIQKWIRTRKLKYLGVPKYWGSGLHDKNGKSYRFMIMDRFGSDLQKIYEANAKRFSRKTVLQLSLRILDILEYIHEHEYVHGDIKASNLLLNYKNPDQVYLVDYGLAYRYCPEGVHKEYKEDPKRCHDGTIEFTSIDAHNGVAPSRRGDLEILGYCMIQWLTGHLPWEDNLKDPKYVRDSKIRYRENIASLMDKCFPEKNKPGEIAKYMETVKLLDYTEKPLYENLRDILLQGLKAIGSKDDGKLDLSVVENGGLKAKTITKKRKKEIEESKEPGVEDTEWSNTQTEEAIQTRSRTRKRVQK
The conditions noted are these: VRK1, 10 uM; for remaining activity at 10 µM: read-out: % Enzyme Activity (relative to DMSO controls).

Test [4] concerns the target T4, 382 unique human kinases (Homo sapiens, UniProt Q9BXA6).
T4 construct: purchased Reaction Biology (HotSpot contract assay)
The conditions noted are these: kinase SSTK/TSSK6, compound 10 uM; for remaining activity at 10 µM: read-out: % Enzyme Activity (relative to DMSO controls).

Test [5] deals with T5, 382 unique human kinases (Homo sapiens, UniProt Q96NX5).
T5 construct: purchased Reaction Biology (HotSpot contract assay)
T5 sequence (Q96NX5 whole entry): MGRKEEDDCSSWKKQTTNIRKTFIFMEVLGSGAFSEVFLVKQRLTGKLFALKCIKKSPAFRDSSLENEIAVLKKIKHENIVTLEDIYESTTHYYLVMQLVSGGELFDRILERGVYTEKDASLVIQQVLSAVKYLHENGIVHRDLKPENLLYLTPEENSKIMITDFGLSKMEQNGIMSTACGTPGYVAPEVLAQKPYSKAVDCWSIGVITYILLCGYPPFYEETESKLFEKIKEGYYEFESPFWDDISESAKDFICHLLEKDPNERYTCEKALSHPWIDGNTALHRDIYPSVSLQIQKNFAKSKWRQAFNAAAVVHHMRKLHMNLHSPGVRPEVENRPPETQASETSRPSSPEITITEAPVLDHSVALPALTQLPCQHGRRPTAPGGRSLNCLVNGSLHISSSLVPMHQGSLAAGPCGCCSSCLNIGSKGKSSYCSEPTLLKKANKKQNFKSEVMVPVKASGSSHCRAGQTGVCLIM
The conditions noted are these: kinase CAMK1g, compound 10 uM; for remaining activity at 10 µM: read-out: % Enzyme Activity (relative to DMSO controls).

The target of test [6] is T6, 382 unique human kinases (Homo sapiens, UniProt P10721, D820E).
T6 construct: purchased Reaction Biology (HotSpot contract assay)
The conditions noted are these: c-Kit (D820E), 10 uM; for remaining activity at 10 µM: read-out: % Enzyme Activity (relative to DMSO controls).

Test [7] has as its target T7, 382 unique human kinases (Homo sapiens, UniProt O15146).
T7 construct: purchased Reaction Biology (HotSpot contract assay)
T7 sequence (O15146 24-869): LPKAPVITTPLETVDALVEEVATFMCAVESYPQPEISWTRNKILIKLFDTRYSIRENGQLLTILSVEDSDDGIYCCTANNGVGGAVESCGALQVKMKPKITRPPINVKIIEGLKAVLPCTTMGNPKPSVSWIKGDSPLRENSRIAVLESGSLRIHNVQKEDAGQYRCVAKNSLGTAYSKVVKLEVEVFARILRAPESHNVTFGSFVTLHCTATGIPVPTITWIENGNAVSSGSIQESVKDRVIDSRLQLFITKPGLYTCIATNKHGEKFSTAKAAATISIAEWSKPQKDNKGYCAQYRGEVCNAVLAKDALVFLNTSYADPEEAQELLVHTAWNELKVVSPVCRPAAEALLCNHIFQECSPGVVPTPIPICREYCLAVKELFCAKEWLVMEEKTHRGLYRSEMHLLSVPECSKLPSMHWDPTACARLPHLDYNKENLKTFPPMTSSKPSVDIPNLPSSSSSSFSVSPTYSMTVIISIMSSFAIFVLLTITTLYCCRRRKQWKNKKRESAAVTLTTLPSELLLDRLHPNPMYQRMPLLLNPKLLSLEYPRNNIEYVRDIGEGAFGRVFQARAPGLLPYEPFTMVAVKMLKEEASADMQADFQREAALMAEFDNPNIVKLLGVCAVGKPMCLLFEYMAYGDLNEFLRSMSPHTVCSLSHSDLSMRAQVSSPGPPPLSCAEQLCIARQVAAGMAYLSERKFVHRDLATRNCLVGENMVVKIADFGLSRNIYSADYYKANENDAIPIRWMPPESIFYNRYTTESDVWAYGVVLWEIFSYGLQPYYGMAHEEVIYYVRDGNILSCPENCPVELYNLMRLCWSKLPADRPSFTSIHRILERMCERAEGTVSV
The conditions noted are these: MUSK, [ATP] 15 µM, compound 10 uM; for remaining activity at 10 µM: read-out: % Enzyme Activity (relative to DMSO controls).

Test [8] deals with T8, 382 unique human kinases (Homo sapiens, UniProt P16234, V561D).
T8 construct: purchased Reaction Biology (HotSpot contract assay)
The conditions noted are these: PDGFRa (V561D), 10 uM; for remaining activity at 10 µM: read-out: % Enzyme Activity (relative to DMSO controls).

Test [9] deals with T9, 382 unique human kinases (Homo sapiens, UniProt Q16654).
T9 construct: purchased Reaction Biology (HotSpot contract assay)
Particulars: PDK4/PDKH4, [ATP] 30 µM.

Test [10] deals with T10, 382 unique human kinases (Homo sapiens, UniProt P53350).
T10 construct: purchased Reaction Biology (HotSpot contract assay)
T10 sequence (P53350 whole entry): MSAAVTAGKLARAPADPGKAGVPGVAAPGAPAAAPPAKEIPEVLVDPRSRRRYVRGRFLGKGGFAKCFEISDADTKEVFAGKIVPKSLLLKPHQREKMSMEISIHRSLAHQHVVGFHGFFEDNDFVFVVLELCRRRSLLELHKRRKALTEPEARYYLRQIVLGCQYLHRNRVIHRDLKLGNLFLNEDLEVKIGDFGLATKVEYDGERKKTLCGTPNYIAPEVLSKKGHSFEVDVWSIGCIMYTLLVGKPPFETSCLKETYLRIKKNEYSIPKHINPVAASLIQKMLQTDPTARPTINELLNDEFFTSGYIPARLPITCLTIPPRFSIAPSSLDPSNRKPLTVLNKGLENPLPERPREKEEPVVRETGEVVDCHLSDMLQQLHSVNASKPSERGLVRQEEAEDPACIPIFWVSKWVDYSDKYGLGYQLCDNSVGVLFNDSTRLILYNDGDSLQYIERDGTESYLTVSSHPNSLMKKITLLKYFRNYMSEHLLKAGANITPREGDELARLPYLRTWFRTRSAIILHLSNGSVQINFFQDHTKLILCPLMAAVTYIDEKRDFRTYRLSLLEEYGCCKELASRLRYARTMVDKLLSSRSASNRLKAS
The conditions noted are these: PLK1, [ATP] 30 µM.

The target of test [11] is T11, 382 unique human kinases (Homo sapiens, UniProt Q9Y6E0).
T11 construct: purchased Reaction Biology (HotSpot contract assay)
T11 sequence (Q9Y6E0 whole entry): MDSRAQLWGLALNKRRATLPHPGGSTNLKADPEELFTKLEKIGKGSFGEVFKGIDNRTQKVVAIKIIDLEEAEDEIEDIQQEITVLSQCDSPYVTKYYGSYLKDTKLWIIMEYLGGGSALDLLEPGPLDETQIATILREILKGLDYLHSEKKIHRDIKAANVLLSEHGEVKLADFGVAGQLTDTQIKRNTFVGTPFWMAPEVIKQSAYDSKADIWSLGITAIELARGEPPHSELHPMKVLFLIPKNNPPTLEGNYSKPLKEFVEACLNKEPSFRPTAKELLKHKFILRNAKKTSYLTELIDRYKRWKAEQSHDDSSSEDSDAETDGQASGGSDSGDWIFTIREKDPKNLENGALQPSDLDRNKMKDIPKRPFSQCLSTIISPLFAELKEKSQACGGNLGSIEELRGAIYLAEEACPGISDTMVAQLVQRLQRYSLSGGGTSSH
Particulars: MST3/STK24, [ATP] 20 µM, compound 10 uM; for remaining activity at 10 µM: read-out: % Enzyme Activity (relative to DMSO controls).

The target of test [12] is T12, 382 unique human kinases (Homo sapiens, UniProt Q5S007, G2019S).
T12 construct: purchased Reaction Biology (HotSpot contract assay)
T12 sequence (Q5S007 whole entry G2019S): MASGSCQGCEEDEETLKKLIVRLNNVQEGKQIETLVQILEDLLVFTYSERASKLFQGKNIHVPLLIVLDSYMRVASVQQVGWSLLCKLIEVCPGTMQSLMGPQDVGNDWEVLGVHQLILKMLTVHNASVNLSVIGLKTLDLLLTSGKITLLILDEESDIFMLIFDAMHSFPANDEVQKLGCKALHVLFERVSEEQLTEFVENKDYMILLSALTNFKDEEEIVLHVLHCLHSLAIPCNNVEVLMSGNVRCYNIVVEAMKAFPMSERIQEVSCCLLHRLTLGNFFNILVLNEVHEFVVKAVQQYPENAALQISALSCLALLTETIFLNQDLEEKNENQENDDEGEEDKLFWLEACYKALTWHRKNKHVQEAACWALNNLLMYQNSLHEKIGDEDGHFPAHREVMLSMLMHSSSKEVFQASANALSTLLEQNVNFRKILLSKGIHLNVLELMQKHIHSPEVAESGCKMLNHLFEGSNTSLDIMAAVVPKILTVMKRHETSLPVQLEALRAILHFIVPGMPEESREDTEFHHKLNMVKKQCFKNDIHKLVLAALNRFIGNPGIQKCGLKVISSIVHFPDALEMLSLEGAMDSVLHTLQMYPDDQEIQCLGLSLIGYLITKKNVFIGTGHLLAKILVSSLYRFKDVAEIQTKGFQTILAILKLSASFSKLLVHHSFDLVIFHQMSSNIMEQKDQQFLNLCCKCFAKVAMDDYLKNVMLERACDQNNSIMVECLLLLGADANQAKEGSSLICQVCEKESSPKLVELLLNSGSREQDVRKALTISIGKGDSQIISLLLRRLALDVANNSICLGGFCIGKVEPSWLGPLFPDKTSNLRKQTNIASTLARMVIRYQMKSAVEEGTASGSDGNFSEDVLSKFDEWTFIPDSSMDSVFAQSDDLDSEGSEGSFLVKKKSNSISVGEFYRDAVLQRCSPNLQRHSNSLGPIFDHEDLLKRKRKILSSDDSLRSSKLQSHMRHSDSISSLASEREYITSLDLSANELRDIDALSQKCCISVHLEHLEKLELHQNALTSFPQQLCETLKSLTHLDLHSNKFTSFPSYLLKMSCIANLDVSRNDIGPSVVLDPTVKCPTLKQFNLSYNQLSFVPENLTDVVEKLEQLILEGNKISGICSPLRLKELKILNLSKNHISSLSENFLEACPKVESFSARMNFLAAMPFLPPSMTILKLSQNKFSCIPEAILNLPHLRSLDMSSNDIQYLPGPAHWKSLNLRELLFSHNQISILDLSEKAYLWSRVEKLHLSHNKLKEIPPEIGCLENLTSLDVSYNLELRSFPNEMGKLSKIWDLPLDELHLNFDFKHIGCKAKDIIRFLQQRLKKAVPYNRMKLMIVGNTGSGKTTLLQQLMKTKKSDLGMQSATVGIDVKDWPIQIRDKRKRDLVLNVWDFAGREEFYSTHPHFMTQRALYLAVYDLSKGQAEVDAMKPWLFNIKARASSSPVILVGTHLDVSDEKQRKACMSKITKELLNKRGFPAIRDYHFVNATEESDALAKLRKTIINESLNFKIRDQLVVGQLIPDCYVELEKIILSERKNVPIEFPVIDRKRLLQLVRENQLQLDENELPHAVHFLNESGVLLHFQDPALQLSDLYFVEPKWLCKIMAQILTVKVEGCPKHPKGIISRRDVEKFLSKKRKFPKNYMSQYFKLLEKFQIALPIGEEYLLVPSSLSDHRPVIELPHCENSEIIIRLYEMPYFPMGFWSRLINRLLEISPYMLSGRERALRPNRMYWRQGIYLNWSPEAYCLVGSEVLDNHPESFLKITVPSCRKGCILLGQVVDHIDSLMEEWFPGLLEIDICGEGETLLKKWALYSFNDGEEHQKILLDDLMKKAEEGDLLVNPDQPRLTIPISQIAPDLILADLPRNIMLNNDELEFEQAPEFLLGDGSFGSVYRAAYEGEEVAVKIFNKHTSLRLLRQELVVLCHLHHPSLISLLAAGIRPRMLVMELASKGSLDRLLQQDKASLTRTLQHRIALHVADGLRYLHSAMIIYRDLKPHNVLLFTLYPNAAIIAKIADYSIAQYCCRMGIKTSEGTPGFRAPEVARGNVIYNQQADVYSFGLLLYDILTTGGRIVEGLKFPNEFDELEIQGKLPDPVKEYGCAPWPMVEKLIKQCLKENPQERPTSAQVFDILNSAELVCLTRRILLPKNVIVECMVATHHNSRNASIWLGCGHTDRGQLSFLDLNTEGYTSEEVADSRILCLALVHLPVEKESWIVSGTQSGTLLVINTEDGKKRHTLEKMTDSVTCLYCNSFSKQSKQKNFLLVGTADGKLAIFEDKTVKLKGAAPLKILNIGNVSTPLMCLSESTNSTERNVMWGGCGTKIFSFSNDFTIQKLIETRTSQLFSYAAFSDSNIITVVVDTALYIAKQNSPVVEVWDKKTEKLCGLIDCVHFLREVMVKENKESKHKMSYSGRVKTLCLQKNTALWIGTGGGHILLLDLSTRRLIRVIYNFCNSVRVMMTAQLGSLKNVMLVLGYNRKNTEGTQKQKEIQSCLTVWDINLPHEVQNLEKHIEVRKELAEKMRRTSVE
The conditions noted are these: LRRK2 (G2019S), [ATP] 50 µM, compound 10 uM; for remaining activity at 10 µM: read-out: % Enzyme Activity (relative to DMSO controls).

Test [13] deals with T13, 382 unique human kinases (Homo sapiens, UniProt Q8N5S9).
T13 construct: purchased Reaction Biology (HotSpot contract assay)
T13 sequence (Q8N5S9 whole entry): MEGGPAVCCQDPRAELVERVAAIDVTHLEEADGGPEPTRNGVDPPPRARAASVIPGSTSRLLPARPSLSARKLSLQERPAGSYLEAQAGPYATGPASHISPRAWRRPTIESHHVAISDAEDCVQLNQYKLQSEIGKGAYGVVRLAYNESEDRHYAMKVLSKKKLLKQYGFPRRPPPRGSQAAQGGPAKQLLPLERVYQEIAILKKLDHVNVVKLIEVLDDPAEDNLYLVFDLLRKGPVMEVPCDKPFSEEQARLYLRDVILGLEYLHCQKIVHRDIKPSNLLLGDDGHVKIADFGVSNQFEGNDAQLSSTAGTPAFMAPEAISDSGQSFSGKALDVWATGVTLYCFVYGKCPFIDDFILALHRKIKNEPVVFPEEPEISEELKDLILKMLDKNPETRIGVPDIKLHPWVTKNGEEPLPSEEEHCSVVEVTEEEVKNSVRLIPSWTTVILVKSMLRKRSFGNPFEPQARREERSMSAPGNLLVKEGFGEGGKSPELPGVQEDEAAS
The conditions noted are these: CAMKK1, 10 uM; for remaining activity at 10 µM: read-out: % Enzyme Activity (relative to DMSO controls).

The mark [14] stands for this setting: compound 1 uM, read-out: % Enzyme Activity (relative to DMSO controls).
Where [15] appears, read: compound 10 uM, read-out: % Enzyme Activity (relative to DMSO controls).

T4 sequence (Q9BXA6 whole entry): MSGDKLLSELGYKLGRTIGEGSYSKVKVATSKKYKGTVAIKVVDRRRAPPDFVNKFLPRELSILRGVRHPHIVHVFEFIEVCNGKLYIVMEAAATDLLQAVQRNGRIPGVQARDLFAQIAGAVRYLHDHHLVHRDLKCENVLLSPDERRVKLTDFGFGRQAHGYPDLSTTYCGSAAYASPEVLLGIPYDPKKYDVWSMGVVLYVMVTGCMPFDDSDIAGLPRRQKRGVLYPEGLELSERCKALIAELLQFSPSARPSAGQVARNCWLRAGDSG

For `CC(C)c1cc(-c2n[nH]c(=O)n2-c2ccc3c(ccn3C)c2)c(O)cc1O` [Ganetespib (STA9090)], the remaining activity at 10 µM on 382 unique human kinases [1] was determined as 106%; at 382 unique human kinases [2], 78.8%; at 382 unique human kinases [3], 75.3%; on 382 unique human kinases [4], 86.5%; on 382 unique human kinases [5] it was 86.8%; on 382 unique human kinases [6], 72.5%.
Take `CC(C)c1cc(-c2n[nH]c(=O)n2-c2ccc3c(ccn3C)c2)c(O)cc1O` [Ganetespib]: the remaining activity at 10 µM on 382 unique human kinases [7] stood at 51.1%; on 382 unique human kinases [8], 99.7%; on 382 unique human kinases [9] (setting [15]), 6.83%; at 382 unique human kinases [10] (setting [15]), 11.5%; on 382 unique human kinases [11], 72.1%; on 382 unique human kinases [12], 28.6%. For the same compound, the remaining activity at 10 µM on 382 unique human kinases [13] stood at 99%. Further, the figures for the remaining activity at 1 µM at 382 unique human kinases [9] (setting [14]) and at 382 unique human kinases [10] (setting [14]) were 26.8% and 88.2%, respectively.
Regarding `CCNC(=O)c1noc(-c2cc(C(C)C)c(O)cc2O)c1-c1ccc(CN2CCOCC2)cc1` [Luminespib (AUY-922)], the “% Enzyme Activity (relative to DMSO controls)” value on 382 unique human kinases [1] is 120.79%; on 382 unique human kinases [2], 92.24%; on 382 unique human kinases [3], 84.23%; at 382 unique human kinases [4], 122.22%; at 382 unique human kinases [5] it was 93.84%; at 382 unique human kinases [6], 88.12%. Also, the remaining activity at 10 µM at 382 unique human kinases [1] amounted to 122%; on 382 unique human kinases [2], 93.5%; on 382 unique human kinases [3] it was 87%; on 382 unique human kinases [4] it was 122%; on 382 unique human kinases [5], 97.8%; at 382 unique human kinases [6], 88.4%.
On to `CCNC(=O)c1noc(-c2cc(C(C)C)c(O)cc2O)c1-c1ccc(CN2CCOCC2)cc1` [Luminespib], for which the “% Enzyme Activity (relative to DMSO controls)” value is 89.25% on 382 unique human kinases [7]; 103.61% at 382 unique human kinases [8]; 27.75% on 382 unique human kinases [9] (compound 10 uM); 100.90% on 382 unique human kinases [10] (compound 10 uM); 58.15% at 382 unique human kinases [11]; 91.80% on 382 unique human kinases [12]. The “% Enzyme Activity (relative to DMSO controls)” value at 382 unique human kinases [13] stood at 103.58%. The remaining activity at 10 µM turned out to be 90.6% at 382 unique human kinases [7]; 104% at 382 unique human kinases [8]; 29.9% at 382 unique human kinases [9] (setting [15]); 103% at 382 unique human kinases [10] (setting [15]); 60% on 382 unique human kinases [11]; 93.5% at 382 unique human kinases [12]. The remaining activity at 10 µM at 382 unique human kinases [13] was 104%.
